Consider 14 molecules from US20120289501A1, “Benzene-fused 6-membered oxygen-containing heterocyclic derivatives of bicyclic heteroaryls” (NOVARTIS AG, priority 2009, published 2012).

This assay deals with IGF1R (Homo sapiens, UniProt P08069). As to the kind of experiment: Cellular IGF-1R assay: inhibition of IGF1R phosphorylation in transduced Hek293 cells, capture ELISA (MSD). It is filed as cell-based. The arrangement: Hek293 cells transduced with the corresponding receptors; expressed in transfected cells; host or cells: Hek293 (Hek293-IGF1R). Here is the method:
In this assay the activity of the compounds of the invention against Insulin-like growth factor I (IGF-1) induced autophosphorylation of the IGF-IR is determined. The assay is conducted as follows: Compound-mediated inhibition of IGF1R and INSR phosphorylation in Hek293 cells transduced with the corresponding receptors is assessed in a capture ELISA format using the MSD (Meso Scale Discovery) platform. Briefly, 30′000 cells washed and diluted in starvation medium (DMEM high glucose supplemented with 0.1% BSA) are seeded in 90 μL per well into 96-well plates pre-coated with poly-D-lysine (0.1 mg/mL in PBS/0). After 24 h incubation at 37° C. and 5% CO2, dose-response effects are determined with 3-fold serial compound dilutions, starting at 10 μM. The final vehicle concentration is 0.1% DMSO in all wells. Following pre-incubation with compounds for 1 h, receptor phosphorylation is triggered by a 10 min exposure to 1.0 ng/μL IGF for Hek293-IGF1R cells, and 5.0 ng/μL insulin for Hek293-InsR cells. Cell lysis is achieved by addition of 80 μL MSD lysis buffer per aspirated well, incubation on ice for 20 min, and a freeze-thaw cycle. Target phosphorylation is then assessed by transferring volumes corresponding to approx. 6 μg Hek293-IGF1R or 0.6 μg Hek293-InsR lysates to MSD assay plates pre-coated with total-IGF1R or total-InsR Abs, respectively. After incubation for 2 h at rt, wells are exposed for 1 hr to a rabbit monoclonal antibody (CST #3024, 1:1000) detecting pIGF1R(Tyr1135/1136) as well as pINSR(Tyr1150/1151). Immune complexes are detected by a SULFO-Tag™-coupled anti-rabbit IgG antibody in the presence of 150 μL MSD read-buffer. Light emission at 620 nm triggered by application of electric current is recorded on a MSD SectorImager 6000. Acquired raw data (mean Ru-ECL units) are processed in an Excel analysis template. The plate blank (MSD lysis buffer) is subtracted from all data points. The effect of a particular test compound concentration on receptor phosphorylation is expressed relative to the window defined by ligand-stimulated vs unstimulated control cells (set as 100%). IC50 values [nM] are determined using 4-parametric curve-fitting (XLfit software, V4.3.2). Alternatively, the assay can be conducted with a slightly different format; Compound-mediated inhibition of IGF-1R and InsR phosphorylation in HEK293 cells overexpressing the corresponding receptors were assessed by quantitative Western blot using an Odyssey infrared imager as readout.
Compound-mediated inhibition of IGF1R and INSR phosphorylation in Hek293 cells transduced with the corresponding receptors is assessed in a capture ELISA format using the MSD (Meso Scale Discovery) platform. Briefly, 30′000 cells washed and diluted in starvation medium (DMEM high glucose supplemented with 0.1% BSA) are seeded in 90 μL per well into 96-well plates pre-coated with poly-D-lysine (0.1 mg/mL in PBS/O). After 24 h incubation at 37° C. and 5% CO2, dose-response effects are determined with 3-fold serial compound dilutions, starting at 10 μM. The final vehicle concentration is 0.1% DMSO in all wells. Following pre-incubation with compounds for 1 h, receptor phosphorylation is triggered by a 10 min exposure to 1.0 ng/μL IGF for Hek293-IGF1R cells, and 5.0 ng/μL insulin for Hek293-InsR cells. Cell lysis is achieved by addition of 80 μL MSD lysis buffer per aspirated well, incubation on ice for 20 min, and a freeze-thaw cycle. Target phosphorylation is then assessed by transferring volumes corresponding to approx. 6 μg Hek293-IGF1R or 0.6 μg Hek293-lnsR lysates to MSD assay plates pre-coated with total-IGF1R or total-lnsR Abs, respectively. After incubation for 2 h at rt, wells are exposed for 1 hr to a rabbit monoclonal antibody (CST #3024, 1:1000) detecting pIGF1R(Tyr1135/1136) as well as pINSR(Tyr1150/1151). Immune complexes are detected by a SULFO-Tag™-coupled anti-rabbit IgG antibody in the presence of 150 μL MSD read-buffer. […]

Where only a bound is given, the exact number is not on record here.

Chain of IGF1R (P08069 31-1367): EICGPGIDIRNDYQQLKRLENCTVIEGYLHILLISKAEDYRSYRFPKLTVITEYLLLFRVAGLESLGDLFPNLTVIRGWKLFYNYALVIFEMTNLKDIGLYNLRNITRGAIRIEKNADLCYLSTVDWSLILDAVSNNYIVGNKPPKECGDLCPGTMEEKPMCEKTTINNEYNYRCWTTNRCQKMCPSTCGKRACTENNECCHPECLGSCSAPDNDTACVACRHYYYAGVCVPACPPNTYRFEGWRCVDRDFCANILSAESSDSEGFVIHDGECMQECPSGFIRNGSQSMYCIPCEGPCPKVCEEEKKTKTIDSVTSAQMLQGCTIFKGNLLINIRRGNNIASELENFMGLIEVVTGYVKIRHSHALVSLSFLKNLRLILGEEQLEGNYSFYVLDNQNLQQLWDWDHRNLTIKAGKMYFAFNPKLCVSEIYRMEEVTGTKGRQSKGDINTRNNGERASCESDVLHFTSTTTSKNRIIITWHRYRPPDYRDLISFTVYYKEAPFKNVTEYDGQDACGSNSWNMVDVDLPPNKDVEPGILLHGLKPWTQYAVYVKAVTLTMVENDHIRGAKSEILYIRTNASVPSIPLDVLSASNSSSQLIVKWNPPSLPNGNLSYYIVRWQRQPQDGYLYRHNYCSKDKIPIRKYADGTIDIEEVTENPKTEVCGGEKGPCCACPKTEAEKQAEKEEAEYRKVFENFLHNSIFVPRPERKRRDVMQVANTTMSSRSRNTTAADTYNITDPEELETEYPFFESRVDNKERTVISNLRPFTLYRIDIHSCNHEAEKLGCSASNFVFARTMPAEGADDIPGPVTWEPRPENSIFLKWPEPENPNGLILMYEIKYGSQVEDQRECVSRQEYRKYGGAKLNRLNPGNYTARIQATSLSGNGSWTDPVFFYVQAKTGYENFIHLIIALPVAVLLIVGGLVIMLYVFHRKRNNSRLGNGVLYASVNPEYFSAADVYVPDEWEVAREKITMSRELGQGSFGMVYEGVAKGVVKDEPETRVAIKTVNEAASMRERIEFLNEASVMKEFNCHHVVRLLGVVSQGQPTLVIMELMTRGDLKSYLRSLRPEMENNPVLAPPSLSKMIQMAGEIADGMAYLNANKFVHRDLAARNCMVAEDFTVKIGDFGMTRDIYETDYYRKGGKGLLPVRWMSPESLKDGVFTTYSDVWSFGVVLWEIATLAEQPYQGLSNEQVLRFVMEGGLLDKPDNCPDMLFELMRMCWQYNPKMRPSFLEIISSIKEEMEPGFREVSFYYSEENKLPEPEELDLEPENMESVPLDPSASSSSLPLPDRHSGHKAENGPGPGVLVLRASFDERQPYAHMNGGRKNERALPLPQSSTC

With `CC1(O)CC(c2nc(-c3ccc4c(c3)O[C@@H](c3ccccc3)CC4)c3c(N)nccn23)C1` (stereo partly drawn) [Example 19, (R,S)—(Z)-3-[8-Amino-1-(2-phenyl-chroman-7-yl)-imidazo[1,5-a]pyrazin-3-yl]-1-methylcyclobutanol], half-maximal inhibition (IC50) required 158 nM.

For `Nc1ncnc2c1c(-c1ccc3c(c1)OC(c1ccccc1)=CC3)cn2[C@H]1C[C@@H](CN2CCS(=O)(=O)CC2)C1` [Example 20, 7-[cis-3-(1,1-Dioxo-1-thiomorpholin-4-ylmethyl)-cyclobutyl]-5-(2-phenyl-4H-chromen-7-yl)-7H-pyrrolo[2,3-d]pyrimidin-4-ylamine], the IC50 – broadly, the concentration at which inhibition is half-maximal – was found to be 179 nM.

With `Nc1ncnc2c1c(-c1ccc3c(c1)O[C@@H](c1ccccc1)CC3)cn2[C@H]1C[C@@H](CN2CCS(=O)(=O)CC2)C1` [Example 24, (R)-7-[cis-3-(1,1-Dioxo-thiomorpholin-4-ylmethyl)-cyclobutyl]-5-(2-phenyl-chroman-7-yl)-7H-pyrrolo[2,3-d]pyrimidin-4-ylamine], the IC50 was 8 nM.

Consider `Nc1ncnc2c1c(-c1ccc3c(c1)O[C@H](c1ccccc1)CC3)cn2[C@H]1C[C@@H](CN2CCS(=O)(=O)CC2)C1` [Example 25, (S)-7-[cis-3-(1,1-dioxo-thiomorpholin-4-ylmethyl)-cyclobutyl]-5-(2-phenyl-chroman-7-yl)-7H-pyrrolo[2,3-d]pyrimidin-4-ylamine], for which half-maximal inhibition (IC50) was put at 9 nM.

In turn, `Nc1ncnc2c1c(-c1ccc3c(c1)OC(c1ccccc1)CC3)cn2C1CC(CN2CCC(O)CC2)C1` (centres unmarked) [Example 37, 1-{3-[4-Amino-5-(2-phenyl-chroman-7-yl)-pyrrolo[2,3-d]pyrimidin-7-yl]-cyclobutylmethyl}-piperidin-4-ol] displayed an IC50 of 46 nM.

`Nc1ncnc2c1c(-c1ccc3c(c1)OC(c1ccccc1)CC3)cn2[C@H]1C[C@@]2(COC(=O)O2)C1` (some centres unmarked) [Example 43, (E)-2-[4-Amino-5-(2-phenyl-chroman-7-yl)-pyrrolo[2,3-d]pyrimidin-7-yl]-5,7-dioxa-spiro[3.4]octan-6-one] gave a concentration for half-maximal inhibition (IC50) of 76 nM. Against the preceding molecule, the IC50 is about 1.7-fold higher.

With `Nc1ncnc2c1c(-c1ccc3c(c1)OC(c1ccccc1)CC3)cn2[C@H]1C[C@@]2(CNC(=O)O2)C1` (some centres unmarked) [Example 44, (E)-2-[4-Amino-5-(2-phenyl-chroman-7-yl)-pyrrolo[2,3-d]pyrimidin-7-yl]-5-oxa-7-aza-spiro[3.4]octan-6-one], the IC50 worked out at 16 nM.

In turn, `Nc1ncnc2c1c(-c1ccc3c(c1)OC(c1ccccc1)CC3)cn2[C@H]1C[C@@](O)(CN2CCS(=O)(=O)CC2)C1` (some centres unmarked) [Example 45, (E)-3-[4-Amino-5-(2-phenyl-chroman-7-yl)-pyrrolo[2,3-d]pyrimidin-7-yl]-1-(1,1-dioxothiomorpholin-4-ylmethyl)-cyclobutanol] showed an IC50 of less than 5 nM.

Turning to `CN1CCN(CC2CC(n3cc(-c4ccc5c(c4)OC(c4ccccc4)CC5)c4c(N)ncnc43)C2)CC1=O` (centres unmarked) [Example 46, 4-{3-[4-Amino-5-(2-phenyl-chroman-7-yl)-pyrrolo[2,3-d]pyrimidin-7-yl]-cyclobutylmethyl}-1-methyl-piperazin-2-one], it took 49 nM to reach half-maximal inhibition (IC50).

`Nc1ncnc2c1c(-c1ccc3c(c1)OC(c1ccccc1)CC3)cn2[C@H]1C[C@@](O)(Cn2cnnc2)C1` (some centres unmarked) [Example 47, (E)-3-[4-Amino-5-(2-phenyl-chroman-7-yl)-pyrrolo[2,3-d]pyrimidin-7-yl]-1-[1,2,4]triazol-4-ylmethylcyclobutanol] returned an IC50 of 525 nM.

In the case of `Nc1ncnc2c1c(-c1ccc3c(c1)OC1(CCCCC1)CC3)cn2[C@H]1C[C@@H](CN2CCS(=O)(=O)CC2)C1` [Example 53, 7-(cis-3-(1,1-dioxo-thiomorpholin-4-ylmethyl)cyclobutyl)-5-(spiro[chroman-2,1′-cyclohexane]-7-yl)-7H-pyrrolo[2,3-d]pyrimidin-4-amine], the 50% inhibitory concentration (IC50) turned out to be 202 nM. Against the preceding molecule, the IC50 is about 2.6-fold lower.

The molecule `Nc1ncnc2c1c(-c1ccc3c(c1)OC(c1ccccn1)CC3)cn2C1CC(CN2CC3CC2CS3(=O)=O)C1` [Example 62, 7-[cis-3-((S,S)-2,2-Dioxo-2λ6-thia-5-aza-bicyclo[2,2,1]kept-5-ylmethyl)-cyclobutyl]-5-(2-pyridin-2-yl-chroman-7-yl)-7H-pyrrolo[2,3-d]pyrimidin-4-ylamine] returned a half-inhibitory concentration (IC50) of 69 nM.

For the molecule “(R,S)—(Z)-3-[8-Amino-1-(2-phenyl-chroman-7-yl)-imidazo[1,5-a]pyrazin-3-yl]-1-hydroxymethyl-cyclobutanol and (R,S)-(E)-3-[8-amino-1-(2-phenyl-chroman-7-yl)-imidazo[1,5-a]pyrazin-3-yl]-1-hydroxymethyl-cyclobutanol [Example 5]”, the IC50 stood at 100 nM.

As for “(R,S)—N-{cis-3-[4-Amino-5-(2-phenyl-chroman-7-yl)-pyrrolo[2,3-d]pyrimidin-7-yl]-cyclobutylmethyl}-methanesulfonamide [Example 17]”, the IC50 amounted to 24 nM.
